Measured values reported in the supplement of paper PMC10307832.

Experiments:
Test in all cases: relative viability (nuclei count vs DMSO), 5 days (fraction); higher = more cells survive
[1] = compound: C1=CC(=CC=C1C2=CC(=C(S2)NC(=O)N)C(=O)N)F [TPCA-1] + CS(=O)(=O)N1CCN(Cc2cc3nc(-c4cccc5[nH]ncc45)nc(N4CCOCC4)c3s2)CC1 [Pictilisib] (partner 1 µM)
Summary of the method: (§1)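 Lung cancer cell lines were seeded in 1536-well plates and dosed by pin tool the next day, with either a single drug or a fixed anchor-drug dose combined with five library-drug doses (not always all listed) spaced in √10 steps. Five days later, one step fixed the cells and stained their nuclei (final 0.05% Triton X-100, 1% formaldehyde, 1 ug/ml Hoechst), and nuclei were counted on 4× images. Relative viability is the nuclei count in treated wells divided by the count in vehicle wells, and each value is the median of duplicate plates.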

[2] = compound: C1=CC(=CC=C1C2=CC(=C(S2)NC(=O)N)C(=O)N)F [TPCA-1] + Nc1nc2[nH]cc(CCc3ccc(C(=O)N[C@@H](CCC(=O)O)C(=O)O)cc3)c2c(=O)[nH]1 [Pemetrexed] (partner 0.2 µM)
Summary of the method: as §1

[3] = compound: C1/C(=C\C2=CC=CS2)/C(=O)/C(=C/C3=CC=CS3)/C1 + O=C(c1cc(Cc2n[nH]c(=O)c3ccccc23)ccc1F)N1CCN(C(=O)C2CC2)CC1 [Olaparib] (partner 8 µM)
Summary of the method: as §1

[4] = compound: C[C@]12O[C@H](C[C@]1(O)CO)n1c3ccccc3c3c4c(c5c6ccccc6n2c5c31)CNC4=O [Lestaurtinib] + CC(=O)Nc1cccc(-n2c(=O)n(C3CC3)c(=O)c3c(Nc4ccc(I)cc4F)n(C)c(=O)c(C)c32)c1 [Trametinib] (partner 0.02 µM)
Summary of the method: as §1

Cell Line	relative viability ([1]; first compound 0.04 µM)	relative viability ([1]; first compound 0.1265 µM)	relative viability ([1]; first compound 0.4 µM)	relative viability ([1]; first compound 1.265 µM)	relative viability ([1]; first compound 4 µM)	relative viability ([2]; first compound 0.04 µM)	relative viability ([2]; first compound 0.1265 µM)	relative viability ([2]; first compound 0.4 µM)	relative viability ([2]; first compound 1.265 µM)	relative viability ([2]; first compound 4 µM)	relative viability ([3]; first compound 0.2 µM)	relative viability ([3]; first compound 0.6325 µM)	relative viability ([3]; first compound 2 µM)	relative viability ([3]; first compound 6.325 µM)	relative viability ([3]; first compound 20 µM)	relative viability ([4]; first compound 0.005 µM)	relative viability ([4]; first compound 0.01581 µM)	relative viability ([4]; first compound 0.05 µM)	relative viability ([4]; first compound 0.1581 µM)	relative viability ([4]; first compound 0.5 µM)
NCI-H1355	0.487	0.325	0.427	0.227	0.224	1.06	1	1.01	0.945	0.878	0.742	0.76	0.727	0.657	0.736	0.481	0.435	0.359	0.318	0.285
EKVX	0.405	0.343	0.512	0.374	0.43	0.43		0.343	0.329	0.375	0.884	0.734	0.951		0.821	0.507		0.362	0.372	0.356
NCI-H441	0.565	0.377	0.4	0.216	0.195	0.247	0.257	0.258	0.24	0.242	0.556	0.493	0.532	0.404	0.569	0.458	0.441	0.346	0.389	0.34
NCI-H1975	0.278	0.259	0.264	0.233	0.16	0.305	0.297	0.3	0.298	0.286	0.757	0.795	0.855	0.538	0.782	0.344	0.33	0.348	0.262	0.209
HCC-78	0.242	0.194	0.21	0.203	0.103	0.919	0.911	0.932	0.885	0.9	0.794	0.872	0.906	0.87	0.81	0.832	0.807	0.578	0.522	0.284
NCI-H2085	0.504	0.385	0.52	0.331	0.418		0.864	0.918	0.872	0.634	0.764	0.774	0.808	0.709	0.765	0.476	0.514	0.558	0.652	0.46
H3255	0.461	0.404	0.509	0.399	0.333	0.577	0.487	0.58	0.484	0.493	0.635	0.59	0.635	0.509	0.535	0.587	0.787	0.496	0.546	0.386
NCI-H2087	1.23	0.785	0.823	0.626	0.203	0.615	0.472	0.646	0.651	0.539	0.708	0.528	0.699	0.561	0.594	0.201	0.264	0.203	0.23	0.187
LC-2-ad	0.644	0.376	0.488	0.322	0.0862	0.262	0.299	0.27	0.283	0.206	0.73	0.728	0.684	0.577	0.713	0.932	1.02	0.792	0.569	0.505
PC-3 [JPC-3]	0.8	0.714	0.81	0.746	0.612	1.17	1.03	1.22	1.09	0.535		1.22	1.09	0.762	1.19	0.766	0.709	0.779	0.575	0.585
EBC-1	0.462	0.421	0.466	0.474	0.362						0.687	0.754	0.652	0.593	0.69					
HCC-15	0.901	0.559	0.766	0.864	0.275	0.222	0.227	0.224	0.238	0.22	0.784	0.771	0.707	0.656	0.66	0.405	0.409	0.306	0.364	0.189
NCI-H1563	0.671	0.633	0.63	0.661	0.611	0.799	0.508	0.788	0.642	0.599										
COR-L 105	0.475	0.364	0.463	0.306	0.248	1.02	0.931	1.23	1.03	0.777	0.753	0.757	0.646	0.434	0.618	0.408	0.419	0.446	0.347	0.341
